The values that follow come from ChEMBL document CHEMBL3507680, “University of Dundee, Gates Library screen for HepG2 cell viability”.

This data set can be described thus: Human HepG2 cell viability assay in 384 well format. The data set is classed as toxicity, cell-based. More on the design: dose 125 nL, time 70.5 hour; cytotoxicity at 70.5 h: concentration not given beside the values. Particulars: HepG2 cells, read-out: Inhibition.
For `Cn1c(N)nnc1SCc1cc(Br)ccc1Cl`, the cytotoxicity at 70.5 h was -10.9%.
For the compound `Cc1nccn1-c1ccc(N2CCC(N[C@H](C)C(C)C)CC2)cc1`, the cytotoxicity at 70.5 h is 0.757%.
For the compound `O=C(c1cc(-c2cn[nH]c2)nc2ccc(F)cc12)N1CCSCC1`, the cytotoxicity at 70.5 h is -5.34%.
For `Fc1cnc(NCC2Cn3nnc(-c4ccccc4)c3CO2)nc1` (stereo not given), the cytotoxicity at 70.5 h is 24.4%.
With `CC(C)c1n[nH]c(C2CN(C(=O)c3cc4c(s3)CCC4)CCO2)n1` (stereo not given), the cytotoxicity at 70.5 h is -8.59%.
Next, `CC(C)c1nc(CN(C)C2CCN(CCNS(C)(=O)=O)C2)no1` (stereo not given): 32.3%; `CC(C)(C)S(=O)(=O)c1ccc(N2CCC(n3ccnc3)CC2)cn1`: -12.2%; `OCC1CCCN1c1cc(NCCc2ccsc2)ncn1` (stereo not given): -15.1%.
As for `CCn1nc(C)c2nc(C(C)C)nc(NCC(C)O)c21` (stereo not given), the cytotoxicity at 70.5 h was -6.78%.
Then `COc1ccccc1CC1CCCN(CCC#N)C1` (stereo not given), with -13.9%.
`O=C(NCC(F)(F)F)c1nnn(-c2ccccc2)c1C(F)(F)F`: the cytotoxicity at 70.5 h is -4.56%.
As for `Cc1cn(CC(=O)NCC(=O)NC2CC2)c2ccccc12`, the cytotoxicity at 70.5 h is -0.742%.
As for `N#Cc1ccccc1C(=O)N1C[C@H]2CC[C@@H]1CN(Cc1ccccc1)C2`, the cytotoxicity at 70.5 h was -13.1%.
For `CCC(NC(=O)c1c(C(=O)O)cnn1C)c1ccc(C)cc1C` (stereo not given), the cytotoxicity at 70.5 h is -3.68%.
For the compound `Cc1nc(CN(C)C(=O)NC(C)c2ccc3c(c2)OCCO3)cs1` (stereo not given), the cytotoxicity at 70.5 h came to 36.4%.
On to `Cc1cccc(N(C)S(=O)(=O)c2cc(C(=O)O)cs2)c1`, for which the cytotoxicity at 70.5 h amounted to 14.1%.
For `CO[C@H]1CN(C(=O)c2cc3ccccc3[nH]2)CC[C@H]1N`, the cytotoxicity at 70.5 h was determined as 18.2%.
In the case of `Cc1ncsc1CCn1ccnc1-c1cc2n(n1)CCCNC2`, the cytotoxicity at 70.5 h is 5.55%.
Regarding `CCNC(=O)NC(=O)CNC1(c2noc(C)n2)CCCCC1`, the cytotoxicity at 70.5 h is 28.5%.
As for `Cc1ccccc1-n1cc(CN(C)C[C@@H]2CCCN3CCCC[C@H]23)cn1`, the cytotoxicity at 70.5 h is -12.2%.
In the case of `NCC1[C@H]2CN(Cc3ccccc3F)C[C@@H]12` (stereo not given in full), the cytotoxicity at 70.5 h is -6.6%.
As for `N#CC1COCCN1S(=O)(=O)c1ccc(F)c(Br)c1` (stereo not given), the cytotoxicity at 70.5 h is -9.56%.
As to `NC(=O)CN(C(=O)c1c[nH]c2ncccc12)C1CCCC1`, the cytotoxicity at 70.5 h was 3.16%.
Then `O=C1C[C@H]2[C@@H](CCN2C(=O)Cc2ccsc2)N1Cc1cccnc1`, with -3.76%; and `CCn1cc(Cl)c(C(=O)NCCOC)n1`, with -0.484%; and `Cc1nc(CNC2CCCN(c3cccnn3)C2)no1` (stereo not given), with 22%.
Take `CCNC(=O)c1ccoc1CN1c2ccccc2CC1C` (stereo not given): the cytotoxicity at 70.5 h was -5.21%.
Next, `CCCS(=O)(=O)NC1CCc2c(ccc(=O)n2CC2CC2)C1` (stereo not given): -8.69%; `O=C(CN1CCOCC1)Nc1ccc(C(F)(F)F)cc1Cl`: 14.6%.
For the compound `CN1CCN(CCCNC(=O)C2CCCCC2)CC1`, the cytotoxicity at 70.5 h was 12.1%.
For the compound `C[C@@H]1CN(Cc2cc(C3CCCCC3)no2)CC[C@@]1(O)C1CC1`, the cytotoxicity at 70.5 h came to 6.92%.
Regarding `CCc1cnc(N2CCC3(CC2)CN(c2cccnc2)C(=O)CO3)nc1`, the cytotoxicity at 70.5 h worked out at 23.8%.
For the compound `CC(C)CCC(=O)N1CC[C@@H]2[C@H](CC1)N(S(C)(=O)=O)CCS2(=O)=O`, the cytotoxicity at 70.5 h is -10.2%.
In the case of `Cc1n[nH]c(C)c1C1COCCN1C(=O)c1n[nH]c2ccccc12` (stereo not given), the cytotoxicity at 70.5 h was found to be 12.3%.
For `CC(C)Cc1ncc2c(n1)CN(c1cc(NCCO)nc(N)n1)C2`, the cytotoxicity at 70.5 h was -8.13%.
Consider `O=C1CNc2ncnc(N3CCN(c4ccccc4F)CC3)c2N1`, for which the cytotoxicity at 70.5 h was 16.1%.
With `Cc1nc(CCNC(=O)N2CCC(Cc3cnn(C)c3)C2)cs1` (stereo not given), the cytotoxicity at 70.5 h was -29.6%.
Take `O=C(NCC(=O)N1CCCCC1)c1ccc(Cl)cc1I`: the cytotoxicity at 70.5 h is -10.6%.
As for `CCCc1n[nH]c(C2CN(Cc3nnc(C4CC4)n3C)CCO2)n1` (stereo not given), the cytotoxicity at 70.5 h was -5.29%.
Next, `COc1ccc2c(c1)C(=O)N(C)C1(CCN(CC3CC3)CC1)N2`: 3.49%; `COCCN1C[C@H]2CN(Cc3cccc(OC)c3)CCN2C1=O`: -7.25%.
Take `COCc1ncn2c1CN(C(=O)c1cnc3ccccc3c1)CC2`: the cytotoxicity at 70.5 h was found to be 1.48%.
Regarding `O=C1CN(Cc2nnc(-c3ccc(Cl)cc3)o2)CCN1`, the cytotoxicity at 70.5 h was -9.87%.
For the compound `CNS(=O)(=O)c1ccc(C(=O)NC2CCOc3ccccc32)o1` (stereo not given), the cytotoxicity at 70.5 h was -1.45%.
In the case of `Fc1cccc(CNc2cncc(-n3cccn3)n2)c1`, the cytotoxicity at 70.5 h was -6.71%.
Consider `COCCN(Cc1ccncc1)C(=O)C1COc2ccccc2C1` (stereo not given), for which the cytotoxicity at 70.5 h was -6.32%.
Turning to `CC(c1cn2ncsc2n1)N1Cc2ncccc2C1=O` (stereo not given), the cytotoxicity at 70.5 h is -10.3%.
Then `CCN1C[C@@H]2CN(Cc3cccs3)C[C@@H]2C1=O`, with -10.6%.
`O=C(NCc1ccc2c(c1)OCCO2)N1CCC(CO)CC1`: the cytotoxicity at 70.5 h stood at 4.7%.
On to `O=C(COCCOc1ccccc1)Nc1ccnn1CC1CCOC1` (stereo not given), for which the cytotoxicity at 70.5 h is -21.2%.
Next, `COCCN1CCc2nc(SCc3ccc(F)cc3)[nH]c(=O)c2C1`: 28.7%; `O=S(=O)(N1CCOCC1)N1CCC(Oc2cnccn2)CC1`: 0.596%.
For the compound `CC(C)(C)c1cn2nc(N3CCCC3Cn3cccn3)sc2n1` (stereo not given), the cytotoxicity at 70.5 h came to 0.173%.
As for `COC(=O)CSCc1noc(-c2ccc(Cl)cc2)n1`, the cytotoxicity at 70.5 h was -13.5%.
Regarding `Cc1nc(CC2CCN(C(=O)C(c3ccccc3C)N(C)C)CC2)no1` (stereo not given), the cytotoxicity at 70.5 h was -13.1%.
With `CC(=O)N(Cc1ncc(C)o1)C1CCN(CCCc2cnn(C)c2)C1` (stereo not given), the cytotoxicity at 70.5 h came to 13.3%.
In the case of `O=C([C@H]1COC[C@H]2CN(C3CCCCC3)C[C@H]21)N1CCOCC1`, the cytotoxicity at 70.5 h was -9.52%.
With `O=C(NC[C@H]1OC[C@@H](NCc2ccccn2)[C@@H]1O)N1CCOCC1`, the cytotoxicity at 70.5 h was -10.1%.
In the case of `O=c1cccnn1CC1CN(c2ncc(F)cn2)Cc2nccn2C1` (stereo not given), the cytotoxicity at 70.5 h is -10.5%.
As for `Cc1nc(-c2ccncc2)nc(N(C)CCc2ccncc2)c1C`, the cytotoxicity at 70.5 h stood at 4.43%.
Consider `CN(C)c1ccc(CN(CC2CCCO2)C(=O)c2csnn2)cc1` (stereo not given), for which the cytotoxicity at 70.5 h was -14.8%.
Consider `O=C(c1ncccn1)N1C[C@H]2CCC[C@@]2(COCC2CCOCC2)C1`, for which the cytotoxicity at 70.5 h is -15.9%.
For the compound `CCCNC(=O)NC(=O)CN1C=Nc2ccccc2S1(=O)=O`, the cytotoxicity at 70.5 h is -11.8%.
For the compound `CC(=O)Nc1nc(C(=O)NCCOc2ccc(C)cc2)cs1`, the cytotoxicity at 70.5 h is 13.3%.
For `CCN(c1ccc(C(=O)N2CCC(C)CC2)cc1)S(=O)(=O)CC`, the cytotoxicity at 70.5 h is 2.02%.
With `NCC(=O)N1CCC2(CC1)CN(C(=O)Cc1ccc(Cl)cc1)CCO2`, the cytotoxicity at 70.5 h was -14.9%.
Next, `COc1c(CNC(C)C(=O)NC2CCCC2)c(C)nn1C` (stereo not given): -6.91%.
Next, `CC(NC(=O)NC1CCN(CC2CCCC2)CC1)c1nccs1` (stereo not given): -6.39%; `COc1ccc(CNC(=O)N2CCCC(Nc3ccccc3)C2)cn1` (stereo not given): -7.17%.
Take `COCc1ncc(CN2CCC(Oc3ccc(OC)cc3)CC2)cn1`: the cytotoxicity at 70.5 h was -20.2%.
Regarding `Cc1ccc2c(c1)N(C(=O)C1CCCOC1)CCC2` (stereo not given), the cytotoxicity at 70.5 h was -4.9%.
With `Cn1cnc2c(-c3cccnc3)nc(C3CCN(S(C)(=O)=O)CC3)cc21`, the cytotoxicity at 70.5 h is -8.84%.
Next, `O=C(NCCNc1cnccn1)N1CCc2ccccc2C1`: -13.1%; `Cc1nnc(CN(C)C2CCN(Cc3nnc(C4CCC4)o3)C2)n1C` (stereo not given): 1.37%.
As to `COCc1noc(C2(c3ccc(Br)cc3)CCOCC2)n1`, the cytotoxicity at 70.5 h is -10.1%.
Then `COc1ccc(-n2nnc(C(=O)NCC3CCCCC3)n2)cc1`, with -12.2%; and `Cc1ncsc1C(=O)N(C)Cc1ccc(Br)o1`, with 20.1%; and `CCC(O)Cn1nc(CCSC)nc1-c1ccc2[nH]ccc2c1` (stereo not given), with 1.48%.
On to `c1cc(CN2CCCn3nnc(COCC4CC4)c3C2)ccn1`, for which the cytotoxicity at 70.5 h was -15.6%.
For `OC(CNCCn1cccn1)c1ccc(F)c(F)c1` (stereo not given), the cytotoxicity at 70.5 h was found to be 0.389%.
Regarding `Cc1c(C(=O)O)nnn1-c1cccc2cccnc12`, the cytotoxicity at 70.5 h was -13.1%.
In the case of `Cc1ccc(Oc2ncccc2C(=O)N(C)CCCN(C)C)cc1`, the cytotoxicity at 70.5 h worked out at 0.617%.
Then `CCOc1ccc(CN(C)C2CCN(c3cc(C)nn3C)C2=O)cc1` (stereo not given), with 19.7%; and `O=C(NC1CC1)[C@@H]1CCO[C@@H]2CCN(CCc3ccccc3)C[C@@H]21`, with -6.53%; and `COc1ccc2c(c1)C(NCCc1ccccn1)CCCO2` (stereo not given), with 16.8%.
Regarding `CC(C)c1nccc(CN2CCCC(O)(CN3CCCC3)C2)n1` (stereo not given), the cytotoxicity at 70.5 h is -0.735%.
For `Cc1cc(C)n(C2CCCN(C(=O)CCc3nccs3)C2)n1` (stereo not given), the cytotoxicity at 70.5 h worked out at 28.2%.
As to `CCc1ncc(CN(CCc2ccccc2)Cc2cccs2)cn1`, the cytotoxicity at 70.5 h was -2.18%.
Take `CCOc1ccc(Cl)c(C(=O)NCCc2ncc[nH]2)n1`: the cytotoxicity at 70.5 h was -3.13%.
Next, `Cc1cc(C)n(CC2CN(CC(=O)NC(C3CC3)C3CC3)CCO2)n1` (stereo not given): -4.44%; `CC(C)NC(=O)CC1CC2(CCN(CC3CC3)CC2)Oc2ccccc21` (stereo not given): 15.7%; `CCn1nc(C)c2nnn(CC(=O)Nc3ccc(C)cc3)c(=O)c21`: -4.64%.
`O=C(CN1CCS(=O)(=O)CC1)NC1CCCOc2ccccc21` (stereo not given): the cytotoxicity at 70.5 h is -3.91%.
Consider `Cc1cc(C)n(Cc2cccc(C(=O)N(CCC#N)CCC#N)c2)n1`, for which the cytotoxicity at 70.5 h was -0.535%.
Then `COc1ccc(Cc2nnc(NC(=O)C3CC34CCC4)s2)cc1OC` (stereo not given), with 0.282%; and `Cc1cc(O)c(OCC(=O)Nc2nc3c(s2)CCCC3)cn1`, with -22.4%.
As for `CC(=O)C(Cc1ccccc1)NC(=O)CSc1nncn1C` (stereo not given), the cytotoxicity at 70.5 h is -5.49%.
Consider `CC(C)(C)Cc1noc2ncc(C(=O)N3CCSCC3)cc12`, for which the cytotoxicity at 70.5 h was -7.45%.
`CSc1nc2ncc3c(=O)n(C)ccc3n2n1`: the cytotoxicity at 70.5 h was -8.16%.
As for `COc1cccc(CNC(C)C)c1OCc1ccc(C)cc1`, the cytotoxicity at 70.5 h is -3.04%.
